Experimental data taken from patent US10039282B2, “Six-membered C—N-bonded aryl sulphide and aryl sulphoxide derivatives as pesticides” (BAYER CROPSCIENCE AKTIENGESELLSCHAFT, priority 2013, dated 2018).
Where two headings read alike, the source gives them in different places.

Legend:
[1] = tested on: Boophilus microplus; assay: Boophilus microplus injection test; type: in vivo; conditions: 20 μg/animal, assessed after 7 days
Protocol: 1. Boophilus microplus—Injection Test
Solvent: dimethyl sulphoxide
To produce an appropriate active compound formulation, 10 mg of active compound are mixed with 0.5 ml of solvent and the concentrate is diluted with solvent to the desired concentration.
1 μl of the active compound solution is injected into the abdomen of 5 engorged adult female cattle ticks (Boophilus microplus). The animals are transferred into dishes and kept in a climate-controlled room.
The efficacy is assessed after 7 days by laying of fertile eggs. Eggs which are not visibly fertile are stored in a climate-controlled cabinet until the larvae hatch after about 42 days. An efficacy of 100% means that none of the ticks has laid any fertile eggs; 0% means that all the eggs are fertile.

[2] = tested on: Tetranychus urticae; assay: Tetranychus urticae spray test, OP-resistant (bean leaf discs); type: in vivo; conditions: 500 g/ha, after 6 days
Protocol: 4. Tetranychus urticae—Spray Test, OP-Resistant
(§1) Solvent: 78.0 parts by weight of acetone
(§2) • 1.5 parts by weight of dimethylformamide Emulsifier: alkylaryl polyglycol ether
To produce further test concentrations, the preparation is diluted with emulsifier-containing water.
After 6 days, the efficacy in % is determined. 100% means that all the spider mites have been killed; 0% means that none of the spider mites have been killed.

[3] = tested on: Tetranychus urticae; assay: Comparative Tetranychus urticae spray test, OP-resistant (TETRUR); type: in vivo; conditions: 144 h
Protocol: 2. Tetranychus urticae—Spray Test; OP-Resistant ([…])
as §1, §2
(§3) To produce an appropriate active compound formulation, 1 part by weight of active compound is dissolved using the specified parts by weight of solvent and made up with water containing an emulsifier concentration of 1000 ppm until the desired concentration is attained. To produce further test concentrations, the preparation is diluted with emulsifier-containing water.
Discs of bean leaves (Phaseolus vulgaris) infested by all stages of the greenhouse red spider mite (Tetranychus urticae) are sprayed with an active compound formulation of the desired concentration.
After the desired period of time, the effect in % is determined 100% means that all the spider mites have been killed; 0% means that none of the spider mites have been killed.

[4] = log P by reversed-phase HPLC analogously to OECD Guideline 117; type: physicochemical; conditions: reversed-phase C18 HPLC column
Protocol: The log P values were determined analogously to OECD Guideline 117 (EC Directive 92/69/EEC) by HPLC (high-performance liquid chromatography) using reversed-phase columns (C 18), by the following methods:
[a] The LC-MS determination in the acidic range is effected at pH 2.7 with 0.1% aqueous formic acid and acetonitrile (contains 0.1% formic acid) as eluents; linear gradient from 10% acetonitrile to 95% acetonitrile. log P^[…] is also referred to as log P(HCOOH). [b] LC-MS determination in the neutral range is effected at pH 7.8 with 0.001 molar aqueous ammonium hydrogencarbonate solution and acetonitrile as eluents; linear gradient from 10% acetonitrile to 95% acetonitrile. log P^[…] is also referred to as log P(neutral).
Calibration is effected with solutions of a homologous series of unbranched alkan-2-ones (having 3 to 16 carbon atoms) with known log P values (log P values determined on the basis of the retention times by linear interpolation between two successive alkanones).

[5] = tested on: Phaedon cochleariae; assay: Phaedon cochleariae spray test; type: in vivo; conditions: 500 g/ha, after 7 days
Protocol: 3. Phaedon cochleariae—Spray Test
Solvent: 78.0 parts by weight of acetone • • 1.5 parts by weight of dimethylformamide Emulsifier: alkylaryl polyglycol ether
as §3
(§4) Discs of Chinese cabbage leaves (Brassica pekinensis) are sprayed with an active compound formulation of the desired concentration and, after drying, populated with larvae of the mustard beetle (Phaedon cochleariae).
After 7 days, the efficacy in % is determined 100% means that all the beetle larvae have been killed; 0% means that no beetle larvae have been killed.

[6] = tested on: Tetranychus urticae; assay: Tetranychus urticae spray test, OP-resistant (bean plants); type: in vivo; conditions: 20 ppm, after 7 days
Protocol: 6. Tetranychus urticae—Spray Test, OP-Resistant
(§5) Solvent: 7 parts by weight of dimethylformamide
Emulsifier: alkylaryl polyglycol ether
To produce an appropriate active compound formulation, 1 part by weight of active compound is dissolved using the specified parts by weight of solvent and made up with water containing an emulsifier concentration of 1000 ppm until the desired concentration is attained. To produce further test concentrations, the preparation is diluted with emulsifier-containing water. If the addition of ammonium salts or/and penetrants is required, these are each added in a concentration of 1000 ppm to the formulation solution.
Bean plants (Phaseolus vulgaris) heavily infested by all stages of the greenhouse red spider mite (Tetranychus urticae) are treated by spraying with the active compound formulation in the desired concentration.
After 7 days, the efficacy in % is determined. 100% means that all the spider mites have been killed; 0% means that none of the spider mites have been killed.

[7] = tested on: Phaedon cochleariae; assay: whole plant or invertebrate; type: in vivo; conditions: 168 h
Protocol: 1. Phaedon cochleariae—Spray Test (PHAECO)
as §1, §2, §3, §4
After the desired period of time, the effect in % is determined. 100% means that all the beetle larvae have been killed; 0% means that no beetle larvae have been killed.

[8] = tested on: Meloidogyne incognita; assay: Meloidogyne incognita test (soil drench, gall formation after 21 days); type: in vivo; conditions: 8 ppm
Protocol: 5. Meloidogyne incognita Test
as §5
Emulsifier: 2.5 parts by weight of alkylaryl poly glycol ether
To produce an appropriate active compound formulation, 1 part by weight of active compound is mixed with the stated amounts of solvent and emulsifier, and the concentrate is diluted with water to the desired concentration, it being necessary to include the volume of soil which is drenched in the calculation. It should be ensured that a concentration of 20 ppm of emulsifier in the soil is not exceeded. To produce further test concentrations, water is used for dilution.
Pots filled with soil (loamy sand) are watered with the active compound solution. An egg/larvae suspension of the southern root-knot nematode (Meloidogyne incognita) is added, lettuce seeds are scattered over the surface of the soil, and they are covered over with quartz sand. The lettuce seeds germinate and the plants develop. The galls develop on the roots.
After 21 days, the nematicidal efficacy in % is determined by the formation of galls. 100% means that no galls have been found; 0% means that the number of galls on the treated plants corresponds to the untreated control.

[9] = tested on: Meloidogyne incognita; assay: Meloidogyne incognita test (sand, lettuce, gall formation after 14 days); type: in vivo; conditions: 20 ppm
Protocol: 2. Meloidogyne Incognita Test
Solvent: 125.0 parts by weight of acetone
To produce an appropriate active compound formulation, 1 part by weight of active compound is mixed with the stated amount of solvent and the concentrate is diluted with water to the desired concentration.
Vessels are filled with sand, active compound solution, an egg/larvae suspension of the southern root-knot nematode (Meloidogyne incognita) and lettuce seeds. The lettuce seeds germinate and the plants develop. The galls develop on the roots.
After 14 days, the nematicidal efficacy in % is determined by the formation of galls. 100% means that no galls were found; 0% means that the number of galls on the treated plants corresponds to the untreated control.

[10] = acidic range, pH 2.7, 0.1% aqueous formic acid/acetonitrile, read-out: logP (HCOOH)
[11] = neutral range, pH 7.8, 0.001 molar aqueous ammonium hydrogencarbonate/acetonitrile, read-out: logP (neutral)

Cc1cc(C)c([S+]([O-])CC(F)(F)F)cc1-n1cnc(C(F)(F)F)cc1=O (racemic) [Example 6, 3-[2,4-Dimethyl-5-(2,2,2-trifluoroethylsulphinyl)phenyl]-6-(trifluoromethyl)pyrimidin-4-one]
efficacy (no fertile eggs laid) [1]: 100% | efficacy (spider mites killed) [2]: 100% | mortality at 20 g/ha ([3]; TETRUR, 20 g/ha, 6 dat, read-out: % mortality): 100% | chromatographic logP [4, 10]: 2.43 | chromatographic logP [4, 11]: 2.39

Cc1cc(Cl)c(-n2cnc(C(F)(F)F)cc2=O)cc1[S+]([O-])CC(F)(F)F (racemic) [Example 53]
efficacy (no fertile eggs laid) [1]: 100% | efficacy (spider mites killed) [2]: 100% | efficacy (beetle larvae killed) [5]: 100%

Cc1cc(C)c([S+]([O-])CC(F)(F)F)cc1-n1cnc(C(F)(F)F)cc1=O (single isomer, unassigned) [Example 49]
efficacy (spider mites killed) [6]: 100%

Cc1cc(C)c([S+]([O-])CC(F)(F)F)cc1-n1cnc(C(F)(F)F)cc1=O (single isomer, unassigned) [Example 56]
efficacy (spider mites killed) [6]: 100%

N#Cc1ccc(-n2cnc(C(F)(F)F)cc2=O)cc1[S+]([O-])CC(F)(F)F (stereo not drawn) [4-[6-oxo-4-(trifluoromethyl)pyrimidin-1-yl]-2-(2,2,2-trifluoroethylsulphinyl)benzonitrile, reference compound]
mortality at 500 g/ha [7]: 0% | mortality at 20 g/ha [3]: 0%

N#Cc1cc(F)c(-n2cnc(C(F)(F)F)cc2=O)cc1[S+]([O-])CC(F)(F)F (stereo not drawn) [5-fluoro-4-[6-oxo-4-(trifluoromethyl)pyrimidin-1-yl]-2-(2,2,2-trifluoroethylsulphinyl)benzonitrile]
mortality at 500 g/ha [7]: 50%

Cc1cc(F)c(-n2cnc(C(F)(F)F)cc2=O)cc1[S+]([O-])CC(F)(F)F (stereo not drawn) [Example 2, 3-{2-Fluoro-4-methyl-5-[(2,2,2-trifluoroethyl)sulphinyl]phenyl}-6-(trifluoromethyl)pyrimidin-4(3H)-one]
mortality at 500 g/ha [7]: 100% | nematicidal efficacy (formation of galls) [8]: 85% | efficacy (no fertile eggs laid) [1]: 100% | efficacy (spider mites killed) [2]: 100% | chromatographic logP [4, 10]: 2.4 | chromatographic logP [4, 11]: 2.38 | efficacy (beetle larvae killed) [5]: 100%

Cc1cc(F)c(-n2cnc(C(F)(F)C(F)(F)F)cc2=O)cc1SCC(F)(F)F [Example 9]
efficacy (no fertile eggs laid) [1]: 100% | efficacy (spider mites killed) [2]: 100% | nematicidal efficacy (formation of galls) [9]: 90% | efficacy (beetle larvae killed) [5]: 100%
